Source: US20140220640A1, “METHOD FOR MANUFACTURING DETOXIFICATED LIGNOCELLULOSIC BIOMASS HYDROLYSATE WITH DECREASED OR ELIMINATED TOXICITY AND METHOD FOR MANUFACTURING ORGANIC OR AND BIOFUEL USING THE SAME” (KOREA INSTITUTE OF SCIENCE AND TECHNOLOGY, priority 2011, published 2014)

Experiments:
[1] = test system: Clostridium tyrobutyricum (ATCC 25755); test: Growth of Clostridium tyrobutyricum in batch culture (absorbance at 600 nm); type: cell-based; conditions: 1 g/L phenolic compound in medium, vs control with no phenolic compound; FIG. 3
Method: (§1) In order to investigate the effect of phenolic compounds on the growth of microorganisms and production of butanol or butyric acid by the microorganisms, microorganisms were cultured in a medium containing phenolic compounds and the cell weight of the microorganisms and the concentration of produced butanol and butyric acid was measured.
(§2) A butyric acid fermentation medium included 20 g of glucose, 5 g of yeast extract, 0.2 g of magnesium sulfate, 0.01 g of manganese sulfate, 0.01 g of iron sulfate, 0.01 g of sodium chloride, 0.5 g of monopotassium phosphate (KH2PO4), 0.5 g of dipotassium phosphate (K2HPO4) and 2 g of ammonium acetate per liter. And, a butanol fermentation medium included 20 g of glucose, 5 g of yeast extract, 0.2 g of magnesium sulfate, 0.01 g of manganese sulfate, 0.01 g of iron sulfate, 0.01 g of sodium chloride, 0.5 g of monopotassium phosphate (KH2PO4), 0.5 g of dipotassium phosphate (K2HPO4) and 2 g of ammonium acetate per liter. Each medium was flushed with argon gas and sterilized at 121° C. for 15 minutes before measurement. Initial pH was adjusted to 6.8 with 1 N potassium hydroxide (KOH).
p-Coumaric acid, ferulic acid, syringaldehyde and vanillic acid, 1 g/L each, were added to the medium as phenolic compounds. A medium with no phenolic compound added was used as control.
Butyric acid fermentation was conducted using Clostridium tyrobutyricum (American Type Culture Collection, ATCC 25755) after culturing for two passages. Butanol fermentation was conducted using Clostridium acetobutylicum (ATCC 824) and Clostridium beijerinckii (National Collection of Industrial, Marine and Food Bacteria, NCIMB 8052) after culturing for two passages.
Butyric acid and butanol fermentation was carried out by adding the culture fluid to a batch fermenter. Batch culture was performed by adding 20 mL of the medium to a 60-mL serum bottle, adding the culture fluid with an amount of 5% based on the medium and then incubating in a shaking incubator at 37° C. and 150 rpm.
The growth of the microorganisms was evaluated by measuring absorbance at 600 nm using a spectrophotometer (UVmini-1240, Shimadzu).
As the surfactant, Tween 80 (BioXtra, Sigma, viscous liquid) was used. The phenolic compound and Tween 80 were added at an amount of 1 g/L to the medium of Example 1. A medium with no phenolic compound or Tween 80 added was used as control.
The growth of Clostridium tyrobutyricum (ATCC 25755) and production of butyric acid thereby in the medium containing the phenolic compounds, 1 g/L each, and 1 g/L of Tween 80 were measured.
Other experimental conditions were the same as in Example 1.
1 g/L of lignin (alkali, Sigma Aldrich 471003) was added to the medium of Example 1 instead of the phenolic compounds. […]

[2] = test system: Clostridium tyrobutyricum (ATCC 25755); test: Production of butyric acid by Clostridium tyrobutyricum (gas chromatography); type: cell-based; conditions: 1 g/L phenolic compound plus 1 g/L Tween 80; FIG. 4
Method: as §1
as §2, with “Each medium was flushed with argon gas and sterilized at 121° C. for 15 minutes before measurement. Initial pH was adjusted to 6.8 with 1 N potassium hydroxide (KOH).” left out
The concentration of butyric acid and butanol was analyzed using a gas chromatography system (Agilent Technologies 6890N Network GC system) equipped with a flame ionization detector. […]
The growth of Clostridium tyrobutyricum (ATCC 25755) and production of butyric acid thereby in the medium containing the phenolic compounds, 1 g/L each, and 1 g/L of Tween 80 were measured. […]

| SMILES | inhibiting the growth of the microorganism [1] | detoxifying effect of added surfactant on butyric acid production [2] |
| --- | --- | --- |
| COc1cc(/C=C/C(=O)O)ccc1O [ferulic acid] | 74% | higher detoxifying effect |
| O=C(O)/C=C/c1ccc(O)cc1 [p-coumaric acid, p-Coumaric acid] | 99% | higher detoxifying effect |
| COc1cc(C=O)cc(OC)c1O [syringaldehyde] | 30% | – |
| COc1cc(C(=O)O)ccc1O [vanillic acid] | 48% | – |
